Reference: patent publication US20220288022A1, “PHARMACEUTICAL COMPOSITION FOR TOPICAL USE THAT IS IN THE FORM OF A DISPERSED PHASE BASED ON AT LEAST ONE SHORT DIOL IN A CONTINUOUS FATTY PHASE AND COMPRISING AT LEAST ONE ANTI-INFLAMMATORY SUBSTANCE” (SOCIETE D'EXPLOITATION DE PRODUITS POUR LES INDUSTRIES …, priority 2019, published 2022)

Experiment: Conductivity (σ) of the emulsions, characterization of the direction of the emulsion
Type: physicochemical
Settings: measured at 25° C., neat diol
Experimental: The conductivity (σ) of the emulsions (F1) to (F3) according to the invention and of the emulsions (F′1) to (F′3) is measured at 25° C., after a period of storage of said emulsions of one day in an insulated climatic chamber regulated at a temperature of 25° C., by means of an LF 196™ brand conductivity meter from the company WTW equipped with a TetraCon™ 96 electrode. If, for a given emulsion, (σ)≤0.5 μS.cm^−1, the emulsion is considered to be non-conductive and consequently the external phase is not the phase based on 1,2-propanediol but the oily phase. Indeed, the conductivity, measured at 25° C., of 1,2-propanediol is equal to 4400 μS.cm^−1. If, for a given emulsion, (σ)>0.5 μS.cm^−1, the emulsion is considered to be conductive and consequently the external phase is not the oily phase but the phase based on 1,2-propanediol or glycerol or PEG-400. This same measurement of the conductivity of the emulsions (F1) to (F3) according to the invention and of the comparative emulsions (F′1) to (F′3) is measured at 25° C. after three months at 25° C., and after three months at 45° C.

For `CC(O)CO` (stereo not shown) [1,2-propanediol], which “conductivity of 1,2-propanediol” value is on record?
The value was 4400 μS.cm^−1.
